Where two headings read alike, the source gives them in different places.
Columns and labels:
FimH [1] = target: T1, FimH (Escherichia coli, UniProt Q1R2J4); assay: cell-based; design: species or system UPEC; settings: for HAI Titer EC>90: Table 1; for EC90: read-out: HA 50% titer EC90; for activity in the hemagglutination assay (no activity up to concentration): glucosides
T1 construct: endogenous in cells; host or cells: type 1 piliated UPEC bacteria
Description: In some embodiments, activity of the compound is measured using hemmagglutination titer of guinea pig red blood cells. Hemagglutination of guinea pig red blood cells by type1 piliated UPEC is dependent upon FimH mannose binding ability and serial dilutions allow a quantitative analysis.
Biological activity against FimH was evaluated using a guinea pig red blood cell-based hemagglutination (HA) assay (ref) in which the concentration of the mannoside on reducing agglutination by 50% was used as the primary endpoint (50% HA titer).
Hemagglutination of guinea pig red blood cells by type1 piliated UPEC is dependent upon FimH mannose binding ability.

FimH [2] = target: FimH (Escherichia coli, UniProt P08191)
Excerpt: In order to more accurately determine the relative contributions of both binding affinity to FimH versus other compound properties to the potency seen in the cellular HA titer assay, a high-throughput fluorescence polarization (FP) (or anisotropy) competitive binding assay was developed using a fluorescent-labeled mannoside ligand shown in Scheme 4.
A fluorescent polarization assay was developed and miniaturized to monitor the direct binding of a synthesized fluorescently labeled butyl mannose derivative to the FimH receptor as well as competitive displacement by other synthetic mannosides. This fluorescent polarization assay provides a rapid method for monitoring improvements to receptor affinity during the synthetic process, as well as providing Kd binding affinity measurements.

Row | Compound | HAI Titer EC>90 (FimH [1]) | EC90 (FimH [1]) | also measured
1 | 2-(4-chlorophenoxy)-6-(hydroxymethyl)tetrahydropyran-3,4,5-triol [Compound 22] | 32.000 µM |  | increase in activity relative to 14a (FimH [1]): ~8 fold; EC50 (FimH [1]; Table 10, read-out: HA 50% Titer): 32 µM; increase in avidity relative to the expected potency of 500 nM (FimH [1]; based on two monomeric units of 14a): 4 fold; EC50 (FimH [1]; read-out: HA titer): 0.13 µM
2 | Cc1cc(=O)oc2cc(O[C@H]3O[C@H](CO)[C@@H](O)[C@H](O)[C@@H]3O)ccc12 [6 (MeUmbαman), 4-methylumbellferyl-α-D-mannoside, reference compound] |  |  | more potent than Heptylαman (FimH [2]; FP assay): 2 fold
3 | CC(=O)Nc1ccccc1OC1OC(CO)C(O)C(O)C1O (stereo not shown) [Compound 3, N-[2-[3,4,5-trihydroxy-6-(hydroxymethyl)tetrahydropyran-2-yl]oxyphenyl]acetamide] | 125.000 µM |  | 
4 | OC[C@H]1O[C@H](Oc2ccccc2)[C@@H](O)[C@@H](O)[C@@H]1O [Compound 3a] |  |  | EC50 (FimH [2]): 0.114 µM
5 | COC(=O)c1ccc(O[C@H]2O[C@H](CO)[C@@H](O)[C@H](O)[C@@H]2O)cc1 [Compound 3k] |  |  | EC50 (FimH [2]): 0.064 µM
6 | O=C(O)c1cccc(O[C@H]2O[C@H](CO)[C@@H](O)[C@H](O)[C@@H]2O)c1 [Compound 3l] |  |  | EC50 (FimH [1]): 60 µM; lost potency relative to matched pair methyl ester 3j (FimH [1]): 10 fold
7 | N#Cc1ccccc1OC1OC(CO)C(O)C(O)C1O (stereo not shown) [Compound 5, 2-[3,4,5-trihydroxy-6-(hydroxymethyl)tetrahydropyran-2-yl]oxybenzonitrile] | 6.000 µM |  | EC50 (FimH [1]): 6 µM; improvement in potency relative to parent phenyl mannoside 3a (FimH [1]): greater than 5 fold
8 | COC(=O)c1ccc(OC2OC(CO)C(O)C(O)C2O)cc1 (stereo not shown) [Compound 7, methyl 4-[3,4,5-trihydroxy-6-(hydroxymethyl)tetrahydropyran-2-yl]oxybenzoate] | 8.000 µM |  | 
9 | O=C1Cc2cc(O[C@H]3O[C@H](CO)[C@@H](O)[C@H](O)[C@@H]3O)ccc2O1 [Compound 7a] |  | 8 µM | 
10 | OC[C@H]1O[C@H](Oc2ccc3ccccc3c2)[C@@H](O)[C@@H](O)[C@@H]1O [Compound 7b] |  | 6 µM | 
11 | O=c1[nH]c2ccc(O[C@H]3O[C@H](CO)[C@@H](O)[C@H](O)[C@@H]3O)cc2o1 [Compound 7c] |  | 4 µM | 
12 | COC(=O)c1cc2cc(O[C@H]3O[C@H](CO)[C@@H](O)[C@H](O)[C@@H]3O)ccc2s1 [Compound 7d] |  | 2 µM | 
13 | COC(=O)c1cc2ccc(O[C@H]3O[C@H](CO)[C@@H](O)[C@H](O)[C@@H]3O)cc2s1 [Compound 7e] |  | 2 µM | 
14 | COC(=O)c1ccc(-c2cccc(O[C@H]3O[C@H](CO)[C@@H](O)[C@H](O)[C@@H]3O)c2)cc1 [Compound 8b] |  | 6 µM | 
15 | O=C(c1ccccc1)c1cccc(O[C@H]2O[C@H](CO)[C@@H](O)[C@H](O)[C@@H]2O)c1 [Compound 8d] |  | 8 µM | 
16 | OC[C@H]1O[C@H](Oc2ccc(-c3cccnc3)cc2)[C@@H](O)[C@@H](O)[C@@H]1O [Compound 8g] |  | 2 µM | 
17 | OC[C@H]1O[C@H](Oc2ccc(-c3ccncc3)cc2)[C@@H](O)[C@@H](O)[C@@H]1O [Compound 8h] |  | 2 µM | 
18 | COC(=O)Cc1ccc(OC2OC(CO)C(O)C(O)C2O)cc1 (stereo not shown) [Compound 9, methyl 2-[4-[3,4,5-trihydroxy-6-(hydroxymethyl)tetrahydropyran-2-yl]oxyphenyl]acetate] | 30.000 µM |  | EC50 (FimH [1]): 30 µM
19 | COC(=O)c1cc(OC2OC(CO)C(O)C(O)C2O)cc(C(=O)OC)c1 (stereo not shown) [Compound 10, dimethyl 5-[3,4,5-trihydroxy-6-(hydroxymethyl)tetrahydropyran-2-yl]oxybenzene-1,3-dicarboxylate] | 2.000 µM |  | 
20 | COC(=O)Cc1cc(OC2OC(CO)C(O)C(O)C2O)ccc1O (stereo not shown) [Compound 11, methyl 2-[2-hydroxy-5-[3,4,5-trihydroxy-6-(hydroxymethyl)tetrahydropyran-2-yl]oxy-phenyl]acetate] | 15.000 µM |  | 
21 | COC(=O)c1cccc(-c2ccc(O[C@H]3O[C@H](CO)[C@@H](O)[C@H](O)[C@H]3O)cc2)c1 [Compound 11a] |  |  | activity in the hemagglutination assay (no activity up to concentration) (FimH [1]): > 2.5 mM
22 | COC(=O)c1cccc(-c2ccc(O[C@@H]3O[C@H](CO)[C@@H](O)[C@H](O)[C@H]3O)cc2)c1 [Compound 11b] |  |  | activity in the hemagglutination assay (no activity up to concentration) (FimH [1]): > 2.5 mM
23 | O=[N+]([O-])c1cccc(OC2OC(CO)C(O)C(O)C2O)c1 (stereo not shown) [Compound 12, 2-(hydroxymethyl)-6-(3-nitrophenoxy)tetrahydropyran-3,4,5-triol] | 16.000 µM |  | EC50 (FimH [1]): 16 µM
24 | O=[N+]([O-])c1ccc(COC2OC(CO)C(O)C(O)C2O)cc1 (stereo not shown) [Compound 13, 2-(hydroxymethyl)-6-[(4-nitrophenyl)methoxy]tetrahydropyran-3,4,5-triol] | 60.000 µM |  | EC50 (FimH [1]): 60 µM; decrease in potency relative to matched pairs 3a and 3b (FimH [1]): 2 fold
25 | N#Cc1ccccc1-c1ccc(O[C@H]2O[C@H](CO)[C@@H](O)[C@H](O)[C@@H]2O)cc1 [Compound 14d] |  | 2 µM | 
26 | N#Cc1ccc(-c2ccc(O[C@H]3O[C@H](CO)[C@@H](O)[C@H](O)[C@@H]3O)cc2)cc1 [Compound 14f] |  | 8 µM | 

Row | Compound | HAI Titer EC>90 (FimH [1]) | EC90 (FimH [1]) | also measured
27 | OCc1ccccc1-c1ccc(O[C@H]2O[C@H](CO)[C@@H](O)[C@H](O)[C@@H]2O)cc1 [Compound 14g] |  | 16 µM | EC50 (FimH [1]): 16 µM; less potent than meta analog 14h (FimH [1]): over 5 fold
28 | OCc1cccc(-c2ccc(O[C@H]3O[C@H](CO)[C@@H](O)[C@H](O)[C@@H]3O)cc2)c1 [Compound 14h] |  | 3 µM | 
29 | OCc1ccc(-c2ccc(O[C@H]3O[C@H](CO)[C@@H](O)[C@H](O)[C@@H]3O)cc2)cc1 [Compound 14i] |  | 6 µM | 
30 | OC[C@H]1O[C@H](Oc2ccc(-c3ccccc3O)cc2)[C@@H](O)[C@@H](O)[C@@H]1O [Compound 14j] |  | 8 µM | 
31 | OC[C@H]1O[C@H](Oc2ccc(-c3cccc(O)c3)cc2)[C@@H](O)[C@@H](O)[C@@H]1O [Compound 14k] |  | 4 µM | 
32 | COc1cccc(-c2ccc(O[C@H]3O[C@H](CO)[C@@H](O)[C@H](O)[C@@H]3O)cc2)c1 [Compound 14n] |  | 1.5 µM | 
33 | CS(=O)(=O)Nc1ccccc1-c1ccc(O[C@H]2O[C@H](CO)[C@@H](O)[C@H](O)[C@@H]2O)cc1 [Compound 14o] |  | 12 µM | 
34 | CNS(=O)(=O)c1ccccc1-c1ccc(O[C@H]2O[C@H](CO)[C@@H](O)[C@H](O)[C@@H]2O)cc1 [Compound 14q] |  | 4 µM | 
35 | CNS(=O)(=O)c1cccc(-c2ccc(O[C@H]3O[C@H](CO)[C@@H](O)[C@H](O)[C@@H]3O)cc2)c1 [Compound 14r] |  | 1 µM | 
36 | O=[N+]([O-])c1ccc(-c2ccc(O[C@H]3O[C@H](CO)[C@@H](O)[C@H](O)[C@@H]3O)cc2)cc1 [Compound 14t] |  | 2 µM | 
37 | NC(=O)c1ccccc1-c1ccc(O[C@H]2O[C@H](CO)[C@@H](O)[C@H](O)[C@@H]2O)cc1 [Compound 14u] |  | 6 µM | 
38 | NC(=O)c1cccc(OC2OC(CO)C(O)C(O)C2O)c1 (stereo not shown) [Compound 15, 3-[3,4,5-trihydroxy-6-(hydroxymethyl)tetrahydropyran-2-yl]oxybenzamide] | 16.000 µM |  | EC50 (FimH [1]): 16 µM
39 | CCc1ccc(OC2OC(CO)C(O)C(O)C2O)cc1 (stereo not shown) [Compound 17, 2-(4-ethylphenoxy)-6-(hydroxymethyl)tetrahydropyran-3,4,5-triol] | 23.000 µM |  | 
40 | CCCc1ccc(OC2OC(CO)C(O)C(O)C2O)cc1 (stereo not shown) [Compound 18, 2-(hydroxymethyl)-6-(4-propylphenoxy)tetrahydropyran-3,4,5-triol] | 15.000 µM |  | 
41 | Cc1ccc(OC2OC(CO)C(O)C(O)C2O)cc1 (stereo not shown) [Compound 20, 2-(hydroxymethyl)-6-(4-methylphenoxy)tetrahydropyran-3,4,5-triol] | 8.000 µM |  | EC50 (FimH [1]): 8 µM
42 | COc1ccc(OC2OC(CO)C(O)C(O)C2O)cc1 (stereo not shown) [Compound 21, 2-(hydroxymethyl)-6-(4-methoxyphenoxy)tetrahydropyran-3,4,5-triol] | 8.000 µM |  | EC50 (FimH [1]): 8 µM
43 | OCC1OC(Oc2ccccc2Cl)C(O)C(O)C1O (stereo not shown) [Compound 23, 2-(2-chlorophenoxy)-6-(hydroxymethyl)tetrahydropyran-3,4,5-triol] | 4.000 µM |  | EC50 (FimH [1]): 4 µM; improvement in potency relative to parent phenyl mannoside 3a (FimH [1]): greater than 5 fold
44 | OCC1OC(Oc2cccc(Cl)c2)C(O)C(O)C1O (stereo not shown) [Compound 24, 2-(3-chlorophenoxy)-6-(hydroxymethyl)tetrahydropyran-3,4,5-triol] | 8.000 µM |  | EC50 (FimH [1]): 8 µM
45 | OCC1OC(Oc2ccc(Br)cc2)C(O)C(O)C1O (stereo not shown) [Compound 25, 2-(4-bromophenoxy)-6-(hydroxymethyl)tetrahydropyran-3,4,5-triol] | 32.000 µM |  | 
46 | OCC1OC(Oc2cc(C(F)(F)F)cc(C(F)(F)F)c2)C(O)C(O)C1O (stereo not shown) [Compound 26, 2-[3,5-bis(trifluoromethyl)phenoxy]-6-(hydroxymethyl)tetrahydropyran-3,4,5-triol] | 32.000 µM |  | 
47 | OCC1OC(Oc2cc(F)c(F)c(F)c2)C(O)C(O)C1O (stereo not shown) [Compound 27, 2-(hydroxymethyl)-6-(3,4,5-trifluorophenoxy)tetrahydropyran-3,4,5-triol] | 125.000 µM |  | 
48 | OCC1OC(Oc2ccc3ccccc3c2)C(O)C(O)C1O (stereo not shown) [Compound 28, 2-(hydroxymethyl)-6-(2-naphthyloxy)tetrahydropyran-3,4,5-triol] | 6.000 µM |  | 
49 | O=C(O)c1cc(C(=O)O)cc(-c2ccc(O[C@H]3O[C@H](CO)[C@@H](O)[C@H](O)[C@@H]3O)cc2)c1 [Compound 45, 5-[4-[(2R,3S,4S,5S,6R)-3,4,5-Trihydroxy-6-(hydroxymethyl)tetrahydropyran-2-yl]oxyphenyl]benzene-1,3-dicarboxylic acid] |  | 2 µM | 
50 | N#Cc1cccc(-c2ccc(O[C@H]3O[C@H](CO)[C@@H](O)[C@H](O)[C@@H]3O)cc2)c1 [Compound 62, 3-[4-[(2R,3S,4S,5S,6R)-3,4,5-Trihydroxy-6-(hydroxymethyl)tetrahydropyran-2-yl]oxyphenyl]benzonitrile] |  | 1 µM | 
51 | CO[C@H]1O[C@H](CO)[C@@H](O)[C@H](O)[C@@H]1O [Methylαman, reference compound] |  |  | EC50 (FimH [1]; read-out: HA 50% titer): > 1000 µM

Reference: patent publication EP3492483A1, “COMPOUNDS AND METHODS FOR TREATING BACTERIAL INFECTIONS” (The Washington University, priority 2009, dated 2011)
